Results taken from patent publication US4689426A, “5-alkylidene-2-halo-4-substituted-2-cyclopentenone and process for production thereof” (Teijin Limited, priority 1983, dated 1987).
In brackets after ≈: the same amount, converted by molar mass. Blank lines part the entries; values can stand above or below the compound they belong to.

Columns and labels:
L1210 leukemia cells = test: Inhibition of proliferation of L1210 leukemia cells; format: cell-based; settings: Mus musculus, L1210, 96 h; 4 days at 37° C., trypan blue count of surviving cells
Experimental: Measurement of the action of inhibiting proliferation of L1210 leukemia cells
L1210 leukemia cells were added to an RPMI medium containing 10% FCS (fetal calf serum), and the concentration of the cells was adjusted to 1×10^5 cells/ml. Each of the test compounds shown in Table 1 was dissolved in 99.5% ethanol. Prior to use, the final concentration of the ethanol solution was adjusted to less than 0.1%, and it was added to the culture medium. The culture medium was then maintained at 37° C. in a stationary condition for 4 days. After the cultivation, the number of surviving cells was measured by dyeing with trypan blue. As a control, 0.1% ethanol was used. A dose-response curve was plotted from the ratios of proliferation against the control, and IC50 was determined.

[1] = test system: L1210 mouse leukemia cells; settings: Biochem. Biophys. Res. Commun., 105, 956 (1982); cited from earlier work
HSV type-2 (YS-4) = test: Inhibition of herpes simplex virus replication in human embryo lung cells, plaque assay on Vero cells; format: cell-based, herpes simplex virus type-2 (strain YS-4); settings: 4 μg/ml, 24 hrs. pretreatment and 24 hrs. after infection; m.o.i. 1; control 1.4 × 10^8; mean of at least three wells
Experimental: (§1) Measurement of inhibitory activities on herpes simplex virus replication
(§2) To evaluate the inhibitory effect of 2-chloro-4-(3,7-dimethyl-6-octenyl)-5-(6-carbomethoxyhexylidene)-2-cyclopentenone against herpes simplex virus [HSV] replication in vitro, human embryo lung cells [HELR66] were grown in 6-well Falcon plates in Eagle's minimal essential medium [MEM] supplemented with 5 percent fetal calf serum [CS] and antibiotics.
(§3) The test compound was dissolved in absolute ethanol and diluted to the appropriate concentrations with culture medium just before use. The cells were incubated at 37° C. in a humidified atmosphere containing 5 percent CO2 and 95 percent air. Confluent monolayers of the cells were treated with 4 μg/ml of the test compound for 24 hrs. before HSV infection. The test compound pretreated cells were infected with HSV type-1 (strain KOS) or HSV type-2 (strain YS-4) at a m.o.i. of 1. After 1 hr. of incubation at 37° C., the cells were further incubated for 24 hrs. with MEM containing with 2 percent CS, antibiotics and 4 μg/ml the test compound. Control media contained the identical concentration of ethanol. HSV infected HEL-R66 cells were harvested with a rubber policeman 24 hrs. after HSV inoculation and stored at -70° C. Titrations were performed by plaque assays on Vero cells.

HSV type-1 (KOS) = test: as above; format: cell-based, herpes simplex virus type-1 (strain KOS); settings: 4 μg/ml, 24 hrs. pretreatment and 24 hrs. after infection; m.o.i. 1; control 1.4 × 10^8; mean of at least three wells
Experimental: as §1, §2, §3

[2] = test system: Ehrlich ascites carcinoma cells; test: Antitumor effect on Ehrlich ascites carcinoma, survival of mice; format: in vivo, ICR mice; settings: over the control
Experimental: Measurement of the antitumor effect on Ehrich ascites carcinoma
1×10^5 Ehrlich ascites carcinoma cells were intraperitoneally administered to ICR mice. After the lapse of 24 hours, 30 mg/kg/day or 20 mg/kg/day of 2-chloro-4-butyl-5-(6-carboxyhexylidene)-2-cyclopentenone (E-form) was intraperitoneally administered to the mice for 5 days. The periods of survival of these animals were examined.

P. aeruginosa IFO 3445 = test: Antimicrobial activity, serial two-fold dilution; format: cell-based; settings: Pseudomonas aeruginosa, IFO3445; Gram (-); heart infusion agar
Experimental: (§4) Measurement of the antimicrobial activity against Gram positive and negative bacterium
(§5) One loopful of cell suspension (10^8 cells/ml) was inoculated on heart infusion agar medium containing various levels of a compound of this invention (2-chloro-4-n-butyl-5-(6-carboxyhexylidene)-2-cyclopentenone). The minimum inhibitory concentrations (MIC) was determined by a standard serial two-fold dilution method.

B. subtilis ATCC 6633 = test: Antimicrobial activity, serial two-fold dilution; format: cell-based; settings: Bacillus subtilis, ATCC6633; Gram (+); heart infusion agar
Experimental: as §4, §5

S. aureus MS 353 = test: Antimicrobial activity, serial two-fold dilution; format: cell-based; settings: Staphylococcus aureus, MS353; Gram (+); heart infusion agar
Experimental: as §4, §5

P. vulgaris H × 19 = test: Antimicrobial activity, serial two-fold dilution; format: cell-based; settings: Proteus vulgaris; Gram (-); heart infusion agar
Experimental: as §4, §5

SMILES: CCCCC1C=C(Br)C(=O)/C1=C/CCCCCC(=O)OC (single isomer, unassigned) [2-bromo-4-butyl-5-(6-methoxycarbonylhexylidene)-2-cyclopentenone]
IC50 (L1210 leukemia cells): 0.2 µg/mL (≈ 0.56 µM)

SMILES: CCCCC1C=C(Br)C(=O)/C1=C\CCCCCC(=O)OC (single isomer, unassigned) [2-bromo-4-butyl-5-(6-methoxycarbonylhexylidene)-2-cyclopentenone]
IC50 (L1210 leukemia cells): 0.1 µg/mL (≈ 0.28 µM)

SMILES: CCCCC[C@H](O)/C=C/[C@H]1C(=O)C[C@H](O)[C@@H]1C/C=C\CCCC(=O)O [PGD2]
IC50 of PGD2 on L1210 cells [1]: 2.4 micrograms/ml

SMILES: CCCCC1C=C(Cl)C(=O)/C1=C\CCCCCC(=O)OC (single isomer, unassigned) [2-chloro-4-butyl-5-(6-methoxycarbonylhexylidene)-2-cyclopentenone]
IC50 (L1210 leukemia cells): < 0.3 µg/mL

SMILES: CCCCC1C=C(Cl)C(=O)/C1=C/CCCCCC(=O)OC (single isomer, unassigned) [2-chloro-4-butyl-5-(6-methoxycarbonylhexylidene)-2-cyclopentenone]
IC50 (L1210 leukemia cells): 0.1 µg/mL (≈ 0.32 µM)

SMILES: COC(=O)CCCCCC=C1C(=O)C(Cl)=CC1CCC(C)CCC=C(C)C (stereo not shown) [2-chloro-4-(3,7-dimethyl-6-octenyl)-5-(6-carbomethoxyhexylidene)-2-cyclopentenone]
Virus yield (HSV type-2 (YS-4)): 5.4 × 10^4 pfu/ml
Virus yield (HSV type-1 (KOS)): 3.1 × 10^4 pfu/ml

MIC (P. aeruginosa IFO 3445): 100 µg/mL (≈ 335 µM)
MIC (B. subtilis ATCC 6633): 6.24 µg/mL (≈ 20.9 µM)
MIC (S. aureus MS 353): 100 µg/mL (≈ 335 µM)
MIC (P. vulgaris H × 19): 25 µg/mL (≈ 83.7 µM)
SMILES: CCCCC1C=C(Cl)C(=O)/C1=C/CCCCCC(=O)O (stereo not shown) [2-chloro-4-butyl-5-(6-carboxyhexylidene)-2-cyclopentenone]
increase of life span (ILS%) ([2]; 20 mg/kg/day i.p. for 5 days): 40.2%
increase of life span (ILS%) ([2]; 30 mg/kg/day i.p. for 5 days): 30.7%
